# Experimental data from US20230151014A1 (Repare Therapeutics Inc., priority 2020, published 2023).
# Target: T1, recombinant human Myt1 (Homo sapiens, UniProt Q99640)
# T1 construct: full length PKMYT1 recombinant human protein expressed in insect cells
# T1 sequence (Q99640 1-499): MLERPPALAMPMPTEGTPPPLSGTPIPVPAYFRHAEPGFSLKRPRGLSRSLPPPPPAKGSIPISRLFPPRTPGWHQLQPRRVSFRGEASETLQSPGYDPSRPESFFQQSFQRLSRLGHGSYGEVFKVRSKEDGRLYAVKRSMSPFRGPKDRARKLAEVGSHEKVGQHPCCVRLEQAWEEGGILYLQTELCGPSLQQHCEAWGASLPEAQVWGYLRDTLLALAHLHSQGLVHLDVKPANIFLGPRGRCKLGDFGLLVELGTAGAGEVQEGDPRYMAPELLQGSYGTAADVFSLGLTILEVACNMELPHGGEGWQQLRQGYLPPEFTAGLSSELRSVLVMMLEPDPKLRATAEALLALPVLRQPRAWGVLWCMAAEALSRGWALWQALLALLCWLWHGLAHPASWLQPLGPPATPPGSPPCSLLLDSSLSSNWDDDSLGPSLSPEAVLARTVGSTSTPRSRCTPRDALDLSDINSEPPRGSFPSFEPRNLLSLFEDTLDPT
# Test: Myt1 enzymatic assay (ADP-Glo kinase assay, IC50 and % max inhibition)
# Type: biochemical
# Settings: recombinant human Myt1 18 nM, ATP 10 μM
# Protocol: Detection of Myt1 kinase activity utilized a recombinant human Myt1 kinase assay measuring the hydrolysis of ATP using a commercially available ADP-Glo Assay (ADP-Glo™ Kinase Assay from Promega, 10 000 assays, #V9102). […] After this, 5 μL of compounds (diluted in reaction buffer to 0.5% DMSO) was added to the microplate and the plate was spun briefly and incubated at 22° C. for 15 minutes. Ultra-Pure Adenosine Triphosphate (ATP) solution (ADP-Glo kit from Promega) was diluted in reaction buffer and 5 μL was added to the microplate, spun down briefly and incubated for 60 minutes at 30° C. […] After the 60-minute incubation, 15 μL of ADP-Glo reagent was added and the plate was spun briefly and sealed and incubated in the dark for 40 minutes at 22° C. […] Luminescence was read using the Envision (250 ms integration). The IC50 and the % max inhibition were calculated for each inhibitor compound tested.
row,Structure (SMILES),IC50 [nM]
1,Cc1ccc(O)c(C)c1-n1c(N)c(C(N)=O)c2nc(-c3nc(C)c(C)s3)cnc21 [Compound 32],< 10
2,Cc1ccc(O)c(C)c1-n1c(N)c(C(N)=O)c2ncc(C#CC(C)(C)O)nc21 [Compound 239],15
3,CCNC(=O)c1cnc2c(n1)c(C(N)=O)c(N)n2-c1c(C)ccc(O)c1C [Compound 244],16
4,Cc1ccc(O)c(C)c1-n1c(N)c(C(N)=O)c2nc3c(nc21)CCCC3 [Compound 262],< 10
5,Cc1c(O)ccc(Cl)c1-n1c(N)c(C(N)=O)c2nc(-c3nccs3)cnc21 [Compound 42],< 10
6,Cc1ccc(O)cc1-n1c(N)c(C(N)=O)c2nc(-c3cccc(C#N)c3)ccc21 [Compound 14],480
7,Cc1ccc(O)c(C)c1-n1c(N)c(C(N)=O)c2nc(N3CCNC(=O)C3)cnc21 [Compound 66],10
8,Cc1ccc(O)c(C)c1-n1c(N)c(C(N)=O)c2nc(-c3ccnnc3)cnc21 [Compound 250],< 10
9,Cc1ccc(O)c(C)c1-n1c(N)c(C(N)=O)c2nc(-c3ccc(Cl)cn3)cnc21 [Compound 49],< 10
10,Cc1ccc(O)c(C)c1-n1c(N)c(C(N)=O)c2cc(C(C)(C)O)cnc21 [Compound 131],< 10
11,Cc1cnc2c(C(N)=O)c(N)n(-c3cc(O)ccc3C)c2n1 [Compound 167],361
12,Cc1ccc(O)cc1-n1c(N)c(C(N)=O)c2ncc(OCCN3CCOCC3)nc21 [Compound 154],6350
13,Cc1ccc(O)c(C)c1-n1c(N)c(C(N)=O)c2nc(-c3nc4ccccc4n3C)cnc21 [Compound 254],10
14,Cc1ccc(O)c(C)c1-n1c(N)c(C(N)=O)c2nc(-c3ccn(C)n3)cnc21 [Compound 72],11
15,Cc1cnc2c(n1)c(C(N)=O)c(N)n2-c1c(C)ccc(O)c1C [Compound 285],11
16,Cc1ccc(O)c(C)c1-n1c(N)c(C(N)=O)c2cc(C3=CCOCC3)cnc21 [Compound 304],< 10
17,"Cc1ccc(O)cc1-n1c(N)c(C(N)=O)c2ncc(OCc3cccnc3)nc21 [Compound 153, 6-amino-5-(5-hydroxy-2-methyl-phenyl)-3-(3-pyridylmethoxy)pyrrolo[2,3-b]pyrazine-7-carboxamide]",3550
18,Cc1ccc(O)cc1-n1c(N)c(C(N)=O)c2ncc(CCc3ccccn3)nc21 [Compound 159],1720
19,Cc1ccc(O)c(C)c1-n1c(N)c(C(N)=O)c2nc(N3CCC(N4CCOCC4)CC3)cnc21 [Compound 74],14
20,Cc1ccc(O)cc1-n1c(N)c(C(N)=O)c2nc(-c3ccc(CC(=O)O)cc3)ccc21 [Compound 21],283
21,Cc1ccc(O)cc1-n1c(N)c(C(N)=O)c2nc(-c3ccc(F)c(Cl)c3)ccc21 [Compound 15],1090

row,Structure (SMILES),IC50 [nM]
1,Cc1ccc(O)c(C)c1-n1c(N)c(C(N)=O)c2nc(-c3cc(C(F)(F)F)ccn3)cnc21 [Compound 36],14
2,"Cc1ccc(O)c(C)c1-n1c(N)c(C(N)=O)c2cc(C(F)(F)F)cnc21 [Compound 221, 2-amino-1-(3-hydroxy-2,6-dimethyl-phenyl)-5-(trifluoromethyl)pyrrolo[2,3-b]pyridine-3-carboxamide]",81
3,"Cc1ccc(O)c(C)c1-n1cc(C(N)=O)c2nc(C)c(C)nc21 [Compound 209, 5-(3-hydroxy-2,6-dimethyl-phenyl)-2,3-dimethyl-pyrrolo[2,3-b]pyrazine-7-carboxamide]",28
4,Cc1ccc(O)c(C)c1-n1c(N)c(C(N)=O)c2nc(-c3ccccn3)cnc21 [Compound 34],< 10
5,Cc1ccc(O)c(C)c1-n1c(N)c(C(N)=O)c2nc(-c3ccc(F)cn3)cnc21 [Compound 64],< 10
6,COCCOCC#Cc1cnc2c(C(N)=O)c(N)n(-c3c(C)ccc(O)c3C)c2n1 [Compound 240],191
7,Cc1ccc(O)c(C)c1-n1c(N)c(C(N)=O)c2ncc(C#C[C@@H]3COC[C@H]3O)nc21 [Compound 234],14
8,Cc1ccc(O)c(C)c1-n1c(N)c(C(N)=O)c2cc(C#N)cnc21 [Compound 312],< 10
9,Cc1ccc(O)cc1-n1c(N)c(C(N)=O)c2nc(-c3cccc(CC(=O)O)c3)ccc21 [Compound 20],182
10,CCN(CC)c1cnc2c(n1)c(C(N)=O)c(N)n2-c1c(C)ccc(O)c1C [Compound 88],< 10
11,Cc1ccc(O)cc1-n1c(N)c(C(N)=O)c2nc(-c3ccnc(N)c3)ccc21 [Compound 22],79
12,"Cc1ccc(O)c(C)c1-n1c(N)c(C(N)=O)c2nc(C3CCC3)cnc21 [Compound 173, 6-amino-2-cyclobutyl-5-(3-hydroxy-2,6-dimethyl-phenyl)pyrrolo[2,3-b]pyrazine-7-carboxamide]",< 10
13,Cc1ccc(O)c(C)c1-n1c(N)c(C(N)=O)c2nc(C#CCN3CCOCC3)c(C#CCN3CCOCC3)nc21 [Compound 215],24
14,"Cc1ccc(O)c(C)c1-n1c(N)c(C(N)=O)c2nc(C#N)cnc21 [Compound 219, 6-amino-2-cyano-5-(3-hydroxy-2,6-dimethyl-phenyl)pyrrolo[2,3-b]pyrazine-7-carboxamide]",46
15,Cc1ccc(O)c(C)c1-n1c(N)c(C(N)=O)c2nc(-c3cc4ccccc4n3C)cnc21 [Compound 247],17
16,Cc1ccc(O)c(C)c1-n1c(N)c(C(N)=O)c2ncc(C#CC3(C)COC3)nc21 [Compound 232],11
17,Cc1ccc(O)c(C)c1-n1c(N)c(C(N)=O)c2nc(C#CCN3CCOCC3)cnc21 [Compound 217],168
18,Cc1ccc(O)cc1-n1c(N)c(C(N)=O)c2nc(-c3ccc(C(=O)O)cc3)ccc21 [Compound 10],187
19,Cc1ccc(O)c(C)c1-n1c(N)c(C(N)=O)c2nc(N3CCC(C(=O)N(C)C)CC3)cnc21 [Compound 80],< 10
20,Cc1ccc(O)c(C)c1-n1c(N)c(C(N)=O)c2nc(-c3ccns3)cnc21 [Compound 41],< 10
21,Cc1ccc(O)c(C)c1-n1c(N)c(S(C)(=O)=O)c2nc(-c3cnccn3)cnc21 [Compound 278],> 5000

row,Structure (SMILES),IC50 [nM]
1,Cc1ccc(O)cc1-n1c(N)c(C(N)=O)c2nc(NCc3ccccc3)cnc21 [Compound 282],625
2,Cc1ccc(-c2cnc3c(n2)c(C(N)=O)c(N)n3-c2c(C)ccc(O)c2C)nc1 [Compound 61],< 10
3,"Cc1ccc(O)cc1-n1c(N)c(C(N)=O)c2nc(C3=CCCC3)ccc21 [Compound 6, 2-amino-5-(cyclopenten-1-yl)-1-(5-hydroxy-2-methyl-phenyl)pyrrolo[3,2-b]pyridine-3-carboxamide]",1240
4,Cc1ccc2c(C(N)=O)c(N)n(-c3c(C)ccc(O)c3C)c2n1 [Compound 193],< 10
5,Cc1ccc(O)c(C)c1-n1c(N)c(C(N)=O)c2nc(CCC3CCNC3)cnc21 (stereo not drawn) [Compound 280],80
6,Cc1ccc(O)c(C)c1-n1c(N)c(C(N)=O)c2nc(C3CC3)c(C)nc21 [Compound 100],< 10
7,Cc1ccc(O)c(C)c1-n1c(N)c(C(N)=O)c2ncc(C#C[C@@H](C)O)nc21 [Compound 241],24
8,Cc1ccc(O)c(C)c1-n1c(N)c(C(N)=O)c2ncc(C#CCN3CCOCC3)nc21 [Compound 218],22
9,Cc1ccc(O)c(C)c1-n1c(N)c(C(N)=O)c2ncc(C#CC3CC3)nc21 [Compound 228],21
10,Cc1ccc(O)cc1-n1c(N)c(C(N)=O)c2ncc(OCc3ccccc3)nc21 [Compound 151],2750
11,Cc1ccc(O)cc1-n1c(N)c(C(N)=O)c2ncc(-c3cccc(C(N)=O)c3)nc21 [Compound 156],465
12,COC(C)(C)C#Cc1cnc2c(C(N)=O)c(N)n(-c3c(C)ccc(O)c3C)c2n1 [Compound 238],10
13,Cc1ccc(O)cc1-n1c(N)c(C(N)=O)c2ncc(CCCN3CCOCC3)nc21 [Compound 161],671
14,Cc1ccc(O)c(C)c1-n1c(N)c(C(N)=O)c2nc(N3CCN(C)CC3)cnc21 [Compound 53],16
15,Cc1ccc(O)c(C)c1-n1c(N)c(C(N)=O)c2nc(N3CCCCC3)cnc21 [Compound 81],< 10
16,Cc1ccc(O)cc1-n1c(N)c(C(N)=O)c2nc(-c3nccs3)ccc21 [Compound 24],29
17,"C=Cc1cnc2c(C(N)=O)c(N)n(-c3c(C)ccc(O)c3C)c2n1 [Compound 257, 6-amino-5-(3-hydroxy-2,6-dimethyl-phenyl)-3-vinyl-pyrrolo[2,3-b]pyrazine-7-carboxamide]",43
18,Cc1ccc(O)c(C)c1-n1c(N)c(C(N)=O)c2ncc(C#CCC3(O)CCOCC3)nc21 [Compound 237],19
19,Cc1ccc(O)c(C)c1-n1c(N)c(C(N)=O)c2nc(N3CC4(COC4)C3)cnc21 [Compound 253],24
20,Cc1ccc(O)cc1-n1c(N)c(C(N)=O)c2ncc(C#CCN3CCOCC3)nc21 [Compound 163],334
21,Cc1ccc(O)c(Br)c1-n1c(N)c(C(N)=O)c2cc(Cl)cnc21 [Compound 289],< 10
